What all share (format): functional
Assay [1] has as its system Escherichia coli. The experiment in a line: Antibacterial activity against Escherichia coli DH5[alpha] at 5 mg/ml after 24 hrs by Kirby-Bauer single disc susceptibility test. Conditions: read-out: DIZ.
Assay [2] concerns Escherichia coli. The experiment in a line: Antibacterial activity against Escherichia coli DH5[alpha] at 2.5 mg/ml after 24 hrs by Kirby-Bauer single disc susceptibility test. The conditions noted are these: read-out: DIZ.
For assay [3], the system named is Rhodococcus rhodochrous. The experiment in a line: Antibacterial activity against Rhodococcus rhodochrous MTCC 265 at 5 mg/ml after 24 hrs by Kirby-Bauer single disc susceptibility test. Conditions: MTCC 265, 24 h, read-out: DIZ.
In assay [4] the test system is Rhodococcus rhodochrous. The experiment in a line: Antibacterial activity against Rhodococcus rhodochrous MTCC 265 at 2.5 mg/ml after 24 hrs by Kirby-Bauer single disc susceptibility test. The conditions noted are these: MTCC 265, 24 h, read-out: DIZ.

Results on eight compounds are retold here after ChEMBL document CHEMBL3046713, “Synthesis and antimicrobial activity of pyrimidine chalcones” (2013).

Regarding `Cn1c(O)c(C(=O)/C=C/c2ccc(OCc3cn(-c4ccc(F)cc4)nn3)cc2)c(=O)n(C)c1=O`, the zone of inhibition at 5000 µg/mL with Escherichia coli [1] and in the assay on Rhodococcus rhodochrous [3] was 0 mm in each case. Further, the zone of inhibition at 2500 µg/mL in the assay on Escherichia coli [2] and in the assay on Rhodococcus rhodochrous [4] was 0 mm each time.
In the case of `Cn1c(O)c(C(=O)/C=C/c2ccc(OCc3cn(-c4ccccc4)nn3)cc2)c(=O)n(C)c1=O`, the zone of inhibition at 5000 µg/mL in the assay on Escherichia coli [1] and in the assay with Rhodococcus rhodochrous [3] was 3 mm each time. Moreover, the zone of inhibition at 2500 µg/mL in the assay with Escherichia coli [2] and with Rhodococcus rhodochrous [4] was 4 mm each time.
For `COc1cccc(-n2cc(COc3ccc(/C=C/C(=O)c4c(O)n(C)c(=O)n(C)c4=O)cc3)nn2)c1`, the zone of inhibition at 5000 µg/mL in the assay with Escherichia coli [1] turned out to be 3.5 mm; with Rhodococcus rhodochrous [3], 2 mm. Moreover, the zone of inhibition at 2500 µg/mL with Escherichia coli [2] and in the assay with Rhodococcus rhodochrous [4] was 3 mm each time.
With `Cc1cccc(-n2cc(COc3ccc(/C=C/C(=O)c4c(O)n(C)c(=O)n(C)c4=O)cc3)nn2)c1`, the zone of inhibition at 5000 µg/mL in the assay with Escherichia coli [1] and in the assay on Rhodococcus rhodochrous [3] was 2 mm each time. Besides, the zone of inhibition at 2500 µg/mL in the assay with Escherichia coli [2] came out at 2 mm; in the assay with Rhodococcus rhodochrous [4] it was 3 mm.
With `Cn1c(O)c(C(=O)/C=C/c2ccc(OCc3cn(-c4ccc(Br)cc4)nn3)cc2)c(=O)n(C)c1=O`, the zone of inhibition at 5000 µg/mL in the assay on Escherichia coli [1] was 0 mm; in the assay on Rhodococcus rhodochrous [3], 2 mm. Also, the zone of inhibition at 2500 µg/mL in the assay with Escherichia coli [2] turned out to be 0 mm; with Rhodococcus rhodochrous [4], 3 mm.
`Cn1c(O)c(C(=O)/C=C/c2ccc(OCc3cn(-c4ccc(Cl)cc4)nn3)cc2)c(=O)n(C)c1=O`: the zone of inhibition at 5000 µg/mL in the assay on Escherichia coli [1] and in the assay with Rhodococcus rhodochrous [3] was 0 mm each time. Also, the zone of inhibition at 2500 µg/mL in the assay on Escherichia coli [2] and in the assay with Rhodococcus rhodochrous [4] was 0 mm in each case.
Turning to `Cn1c(O)c(C(=O)/C=C/c2ccc(OCc3cn(Cc4ccccc4)nn3)cc2)c(=O)n(C)c1=O`, the zone of inhibition at 5000 µg/mL was 0 mm with Escherichia coli [1] and 2 mm with Rhodococcus rhodochrous [3]. The zone of inhibition at 2500 µg/mL in the assay with Escherichia coli [2] was 0 mm; in the assay on Rhodococcus rhodochrous [4], 2 mm.
`COc1ccc(-n2cc(COc3ccc(/C=C/C(=O)c4c(O)n(C)c(=O)n(C)c4=O)cc3)nn2)cc1`: the results for the zone of inhibition at 5000 µg/mL in the assay with Escherichia coli [1] and with Rhodococcus rhodochrous [3] were 0 mm and 2 mm, respectively. Besides, the zone of inhibition at 2500 µg/mL with Escherichia coli [2] amounted to 0 mm; in the assay on Rhodococcus rhodochrous [4], 2 mm.
